Tests used:
KEAP1 C151 = molecular target: T1, KEAP1 C151 (Homo sapiens, UniProt Q14145); experiment: Nrf2 TMT measurement: in vitro TE50 for KEAP1 C151 (IA-DTB competition, targeted TMT mass spectrometry) in MDA-MB-468 cell lysate; type: binding; settings: in vitro target engagement of KEAP1 C151, targeted TMT, read-out: KEAP1_C151 TE50
T1 construct: treating 500 μg of cell lysate generated from MDA-MB-468 breast cancer cells with DMSO or compound; endogenous in cells; host or cells: MDA-MB-468 breast cancer cell lysate
Description: In vitro TE50 values for KEAP_C151 were obtained by treating 500 μg of cell lysate generated from MDA-MB-468 breast cancer cells with DMSO or compound for 1 hour at room temperature followed by the addition of 200 μM IA-DTB (in DMSO) for one hour at room temperature. Samples were then precipitated by the addition of 8× ice cold acetonitrile and incubated at −80° C. for two hours. Protein was then pelleted by centrifugation (4,200 RPM, 45 min, 4° C.). The pelleted material was resuspended in 9M Urea, 50 mM ammonium bicarbonate and proteins were reduced and alkylated by the addition of DTT and iodoacetamide (10 and 30 mM, respectively). Following reduction and alkylation, samples were exchanged into 2M urea (Zeba spin desalting plates, Thermo Fisher) and digested with Trypsin. IA-DTB labeled peptides were isolated with streptavidin agarose resin. Enriched peptides were eluted by the addition of 50% acetonitrile (ACN) 0.1% Formic Acid (FA) and dried in a SpeedVac vacuum concentrator.
Dried peptides were resuspended in 0.2 M EPPS pH 8.5 and treated with 6.5 μL of 11-plex tandem mass tag (TMT) (8.3 μg/μL in dry ACN) for 2 hours at room temperature. Reactions were quenched by the addition of 6.5 μL of 5% Hydroxylamine. Samples were then combined and desalted on a Biotage Evolute express ABN plate (600-0010-PX01).
Targeted TMT. Targeted TMT measurements were collected using an Orbitrap LumosTribrid Mass Spectrometer (Thermo Scientific) coupled to an UltiMate 3000 Series Rapid Separation LC system and autosampler (Thermo Scientific Dionex). Peptides were eluted onto a custom C18 capillary analytical column (75-μm inner diameter fused silica, packed with Acclaim PepMap C18 resin (Thermo Scientific)) using an Acclaim PepMap 100 (Thermo 164535) loading column, and separated at a flow rate of 1.0 μl min−1. Data were acquired using a specific MS3-based TMT method targeting the peptide containing KEAP1 C151 (C(+324.2)[…], +3 charge state) where MS2 peptide fragmentation is triggered upon detection of the peptide precursor ion. Subsequent MS3 analysis was then performed using pre-selected peptide fragment ions that were isolated for fragmentation using synchronous precursor selection. RAW files were converted to MZXML format and searched with the SEQUEST algorithm using the MassPike software package. TMT quantitation was performed with a filter requiring at least ten summed signal-to-noise for control channels. Quantified signals were used for dose response curve-fitting and IC50 calculation using R's drc package.

Nrf2 = Nrf2 antagonism assay: ARE luciferase reporter in KYSE-70 cells; type: cell-based; settings: Homo sapiens, KYSE-70, KYSE-70 cells, positive Imax corresponds to Nrf2 antagonism, read-out: KYSE70 Cellular ARE Luciferase Imax (%)
How it was run: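 Dose-response curves give IC50 and Imax, with positive Imax read as Nrf2 antagonism, i.e. reduced luciferase signal. Reporter cells are Nrf2-high KYSE-70 (Nrf2 W24C mutant) bearing ARE-controlled luciferase. Antagonists are proposed to act at KEAP1 C151, speeding Nrf2 degradation.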

T1 sequence (Q14145 whole entry): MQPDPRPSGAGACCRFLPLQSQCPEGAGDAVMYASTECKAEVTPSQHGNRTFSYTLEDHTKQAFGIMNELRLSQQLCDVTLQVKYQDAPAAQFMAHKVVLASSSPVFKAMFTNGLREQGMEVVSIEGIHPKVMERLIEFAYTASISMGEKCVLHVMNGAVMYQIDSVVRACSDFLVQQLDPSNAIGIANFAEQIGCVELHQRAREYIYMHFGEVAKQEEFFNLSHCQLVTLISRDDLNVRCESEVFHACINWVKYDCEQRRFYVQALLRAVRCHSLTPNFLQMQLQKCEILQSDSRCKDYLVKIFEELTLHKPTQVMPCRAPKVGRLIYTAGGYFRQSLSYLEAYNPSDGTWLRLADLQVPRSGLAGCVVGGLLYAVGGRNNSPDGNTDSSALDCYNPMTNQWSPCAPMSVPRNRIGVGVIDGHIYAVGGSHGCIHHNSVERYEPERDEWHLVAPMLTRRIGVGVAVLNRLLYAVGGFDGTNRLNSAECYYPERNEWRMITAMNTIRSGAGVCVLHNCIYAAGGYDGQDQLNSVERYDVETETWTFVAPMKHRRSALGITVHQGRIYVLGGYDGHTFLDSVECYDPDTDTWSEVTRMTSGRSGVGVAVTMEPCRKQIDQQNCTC

Structure (SMILES) | IC50 (KEAP1 C151) | Emax (Nrf2)
C=CC(=O)N1CCOCC1c1cc(Cl)nc(-c2ccc(F)c(C(N)=O)c2)c1 (single isomer, unassigned) [Compound 65, 5-(4-(4-acryloylmorpholin-3-yl)-6-chloropyridin-2-y1)-2-fluorobenzamide] | 24 nM | 88%
C=CC(=O)N1CC(C)(C)OC[C@H]1c1cc(Cl)cc(-c2ncnc(N)n2)c1 (single isomer, unassigned) [Compound 66] | 23 nM | 93%
C=CC(=O)N1CCOCC1c1cc(Cl)cc(-c2cnc3cncn3c2)c1 (single isomer, unassigned) [Compound 68, 1-(3-(3-chloro-5-(imidazo[1,5-a]pyrimidin-3-yl)phenyl)morpholino)prop-2-en-1-one] | 90 nM | 72%
C=CC(=O)N1CC(C)(C)OCC1c1cc(Cl)nc(-c2ccc(F)c(C(N)=O)c2)c1 (single isomer, unassigned) [Compound 69, 5-(4-(4-acryloyl-6,6-dimethylmorpholin-3-yl)-6-chloropyridin-2-yl)-2-fluorobenzamide] | 88.4 nM | 82%
C=CC(=O)N1CCOCC1c1cc(Cl)cc(-c2ccc(C(N)=O)cc2)c1 (single isomer, unassigned) [Compound 70, 3′-(4-acryloylmorpholin-3-yl)-5′-chloro-[1,1′-biphenyl]-4-carboxamide] | 54 nM | 81%
C=CC(=O)N1CCOCC1c1cc(Cl)cc(-c2cccc(C(N)=O)c2)c1 (single isomer, unassigned) [Compound 71, 3′-(4-acryloylmorpholin-3-yl)-5′-chloro-[1,1′-biphenyl]-3-carboxamide] | 30 nM | 78%
C=CC(=O)N1CCOCC1c1cc(Cl)cc(-c2cc(F)cc(C(N)=O)c2)c1 (single isomer, unassigned) [Compound 72, 3′-(4-acryloylmorpholin-3-yl)-5′-chloro-5-fluoro-[1,1′-biphenyl]-3-carboxamide] | 27 nM | 80%
C=CC(=O)N1CCOCC1c1cc(Cl)cc(-c2cccc(C(N)=O)c2F)c1 (single isomer, unassigned) [Compound 73, 3′-(4-acryloylmorpholin-3-yl)-5′-chloro-2-fluoro-[1,1′-biphenyl]-3-carboxamide] | 56 nM | 74%
C=CC(=O)N1CC2(CC2)OCC1c1cc(Cl)cc(-c2ccc(F)c(C(N)=O)c2)c1 (single isomer, unassigned) [Compound 76, 3′-(7-acryloyl-4-oxa-7-azaspiro[2.5]octan-6-yl)-5′-chloro-4-fluoro-[1,1′-biphenyl]-3-carboxamide] | 24 nM | 90%
C=CC(=O)N1CCOCC1c1cc(Cl)cc(-c2nccc(C(N)=O)n2)c1 (single isomer, unassigned) [Compound 77, 2-(3-(4-acryloylmorpholin-3-yl)-5-chlorophenyl)pyrimidine-4-carboxamide] | 86 nM | 82%
C=CC(=O)N1CCOC[C@H]1c1cc(Cl)cc(-c2cc(N)ncn2)c1 (single isomer, unassigned) [Compound 80] | 290 nM | 94%
C=CC(=O)N1CC2(CC2)OCC1c1cc(Cl)cc(-c2ccnc(C)n2)c1 (single isomer, unassigned) [Compound 83, 1-(6-(3-chloro-5-(2-methylpyrimidin-4-yl)phenyl)-4-oxa-7-azaspiro[2.5]octan-7-yl)prop-2-en-1-one] | 89 nM | 86%
C=CC(=O)N1CC2(CC2)OCC1c1cc(Cl)cc(-c2ccnc(N)n2)c1 (single isomer, unassigned) [Compound 84, 1-(6-(3-(2-aminopyrimidin-4-y1)-5-chlorophenyl)-4-oxa-7-azaspiro[2.5]octan-7-yl)prop-2-en-1-one] | 47 nM | 93%
C=CC(=O)N1CCOCC1c1cc(Cl)cc(-c2cc(C(N)=O)n3ccnc3c2)c1 (single isomer, unassigned) [Compound 85, 7-(3-(4-acryloylmorpholin-3-yl)-5-chlorophenyl)imidazo[1,2-a]pyridine-5-carboxamide] | 36 nM | 89%
C=CC(=O)N1CCOCC1c1cc(Cl)cc(-c2ccnc(C(N)=O)n2)c1 (single isomer, unassigned) [Compound 89, 4-(3-(4-acryloylmorpholin-3-yl)-5-chlorophenyl)pyrimidine-2-carboxamide] | 36 nM | 73%
C=CC(=O)N1CCOC[C@H]1c1cc(Cl)cc(-c2ccnc(C)c2)c1 (single isomer, unassigned) [Compound 90] | 120 nM | 81%
C=CC(=O)N1CCOC[C@H]1c1cc(Cl)cc(-c2ncc(N)cn2)c1 (single isomer, unassigned) [Compound 92] | 23 nM | 94%
C=CC(=O)N1CCOC[C@H]1c1cc(Cl)cc(-c2nc(C)cc(C)n2)c1 (single isomer, unassigned) [Compound 93] | 40 nM | 91%

Stronger by IC50 (KEAP1 C151), values ahead:

IC50 (KEAP1 C151) | Structure (SMILES) | Emax (Nrf2)
1 nM | C=CC(=O)N1CCOCC1c1cc(Cl)nc(-c2ccn3ccnc3c2)c1 (single isomer, unassigned) [Compound 64, 1-(3-(2-chloro-6-(imidazo[1,2-a]pyridin-7-yl)pyridin-4-yl)morpholino)prop-2-en-1-one] | 75%
19 nM | C=CC(=O)N1CCOCC1c1cc(C#N)cc(-c2ccc(F)c(C(N)=O)c2)c1 (single isomer, unassigned) [Compound 67, 3′-(4-acryloylmorpholin-3-yl)-5′-cyano-4-fluoro-[1,1′-biphenyl]-3-carboxamide] | 73%
22 nM | C=CC(=O)N1CCN(C(C)=O)C[C@H]1c1cc(Cl)cc(-c2ncnc(N)n2)c1 (single isomer, unassigned) [Compound 74] | 89%
18 nM | C=CC(=O)N1CC(C)(C)OCC1c1cc(Cl)nc(-c2ccn3ccnc3c2)c1 (single isomer, unassigned) [Compound 78, 1-(5-(2-chloro-6-(imidazo[1,2-a]pyridin-7-yl)pyridin-4-yl)-2,2-dimethylmorpholino)prop-2-en-1-one] | 78%
18 nM | C=CC(=O)N1CCN(C(C)=O)C[C@H]1c1cc(Cl)cc(-c2ccc(F)c(C(N)=O)c2)c1 (single isomer, unassigned) [Compound 79] | 85%
12 nM | C=CC(=O)N1CCN(C(C)=O)C[C@H]1c1cc(Cl)cc(-c2ccnc(N)n2)c1 (single isomer, unassigned) [Compound 81] | 85%
< 10 nM | C=CC(=O)N1CCOC[C@H]1c1cc(Cl)cc(-c2ccc3c(c2)C(=O)NC3)c1 (single isomer, unassigned) [Compound 82] | 77%
7.3 nM | C=CC(=O)N1CCOC[C@H]1c1cc(Cl)cc(-c2cc(OC)ncn2)c1 (single isomer, unassigned) [Compound 86] | 83%
10 nM | C=CC(=O)N1CCOC[C@H]1c1cc(Cl)cc(-c2nccc(C)n2)c1 (single isomer, unassigned) [Compound 87] | 81%
14 nM | C=CC(=O)N1CCOC[C@H]1c1cc(Cl)cc(-c2nccc(OC)n2)c1 (single isomer, unassigned) [Compound 88] | 85%
11 nM | C=CC(=O)N1CCOC[C@H]1c1cc(Cl)cc(-c2ccnc(OC)c2)c1 (single isomer, unassigned) [Compound 91] | 82%

From patent US20260207621A1 (Vividion Therapeutics, Inc., priority 2022, published 2026)
